Laboratory results taken from the NIST ThermoML archive (doi:10.1016/j.fluid.2010.02.010).

Tests used:
[1] = excess molar enthalpy (molar enthalpy of mixing); xn = mol fraction of the nth substance listed; details: 101 kPa, Liquid, Flow calorimetry
[2] = activity coefficient (dimensionless); of the first substance listed, at infinite dilution; xn = mol fraction of the nth substance listed; details: 101 kPa, Liquid, x1 = 0
[3] = 101.33 kPa, Liquid, Vibrating tube method

CCCCn1cc[n+](C)c1.O=S(=O)([O-])C(F)(F)F [1-butyl-3-methylimidazolium trifluoromethanesulfonate] + C=CCCCC
[1], 413.15 K
Details | excess molar enthalpy [kcal/mol]
x2 = 0.0431 | 0.0234
x2 = 0.0845 | 0.0443
x2 = 0.1632 | 0.0602
x2 = 0.2004 | 0.0576
x2 = 0.2364 | 0.0555
x2 = 0.3049 | 0.0508
x2 = 0.3691 | 0.0468
x2 = 0.4292 | 0.0423
x2 = 0.5391 | 0.0335
x2 = 0.637 | 0.0269
x2 = 0.7247 | 0.0206
x2 = 0.8404 | 0.0125
x2 = 0.9405 | 0.00488

CCCCn1cc[n+](C)c1.O=S(=O)([O-])C(F)(F)F [1-butyl-3-methylimidazolium trifluoromethanesulfonate] + CCCCCC
[1], 413.15 K
Details | excess molar enthalpy [kcal/mol]
x2 = 0.0413 | 0.0571
x2 = 0.1199 | 0.0756
x2 = 0.1573 | 0.0722
x2 = 0.1936 | 0.0687
x2 = 0.2287 | 0.0655
x2 = 0.2958 | 0.0595
x2 = 0.359 | 0.0545
x2 = 0.4186 | 0.0494
x2 = 0.5283 | 0.0413
x2 = 0.6269 | 0.0317
x2 = 0.7159 | 0.0248
x2 = 0.8344 | 0.0148
x2 = 0.938 | 0.00684

CCCCn1cc[n+](C)c1.O=S(=O)([O-])C(F)(F)F [1-butyl-3-methylimidazolium trifluoromethanesulfonate] + CCCCCCC
[1]
Details | excess molar enthalpy [kcal/mol]
363.15 K, x2 = 0.02 | 0.0178
363.15 K, x2 = 0.0501 | 0.0321
363.15 K, x2 = 0.1001 | 0.0421
363.15 K, x2 = 0.1502 | 0.0435
363.15 K, x2 = 0.2002 | 0.0418
363.15 K, x2 = 0.3003 | 0.037
363.15 K, x2 = 0.4003 | 0.0312
363.15 K, x2 = 0.5003 | 0.0263
363.15 K, x2 = 0.6003 | 0.0207
363.15 K, x2 = 0.7003 | 0.0152
363.15 K, x2 = 0.8002 | 0.00987
363.15 K, x2 = 0.9001 | 0.00492
413.15 K, x2 = 0.0371 | 0.073
413.15 K, x2 = 0.1085 | 0.0833
413.15 K, x2 = 0.143 | 0.0831
413.15 K, x2 = 0.1766 | 0.0805
413.15 K, x2 = 0.2094 | 0.0775
413.15 K, x2 = 0.2729 | 0.0713
413.15 K, x2 = 0.3335 | 0.0655
413.15 K, x2 = 0.3915 | 0.0611
413.15 K, x2 = 0.5002 | 0.0505
413.15 K, x2 = 0.6002 | 0.0409
413.15 K, x2 = 0.6925 | 0.0319
413.15 K, x2 = 0.8183 | 0.0198
413.15 K, x2 = 0.9311 | 0.0076

C=CCCCCC [1-heptene] + CCCCCCCCn1cc[n+](C)c1.O=S(=O)([O-])C(F)(F)F
[2], dilutor technique
Details | activity coefficient
303.21 K | 6.11
313.15 K | 6.03
323.14 K | 5.97
333.12 K | 5.89

C=CCCCCC [1-heptene] + CCCCCCn1cc[n+](C)c1.O=S(=O)([O-])C(F)(F)F
activity coefficient, [2]
Details | 303.14 K | 303.16 K | 313.15 K | 313.17 K | 323.15 K | 333.14 K | 333.18 K
Chromatography | 11.2 | – | 10.8 | – | 10.6 | 10.4 | –
dilutor technique | – | 11 | – | 10.6 | 10.4 | – | 10.1

C=CCCCCC [1-heptene] + CCCCn1cc[n+](C)c1.O=S(=O)([O-])C(F)(F)F
activity coefficient, [2]
Details | 303.17 K | 303.45 K | 313.13 K | 313.15 K | 323.14 K | 323.16 K | 333.15 K | 333.16 K
Chromatography | – | 21.8 | – | 21.3 | 20.6 | – | 19.9 | –
Dilutor technique | 22.1 | – | 21.2 | – | – | 20.2 | – | 19.7

CCCCCCn1cc[n+](C)c1.O=S(=O)([O-])C(F)(F)F [1-hexyl-3-methylimidazolium trifluoromethanesulfonate]
[3]
Details | mass density [kg/m3]
308.16 K | 1231.4
313.16 K | 1227.6
318.16 K | 1223.8
323.16 K | 1220
328.16 K | 1216.2
333.16 K | 1212.5
338.16 K | 1208.7
343.16 K | 1205
348.15 K | 1201.3

CCCCCCn1cc[n+](C)c1.O=S(=O)([O-])C(F)(F)F [1-hexyl-3-methylimidazolium trifluoromethanesulfonate] + C=CCCCC
[1], 413.15 K
Details | excess molar enthalpy [kcal/mol]
x2 = 0.0407 | 0.00805
x2 = 0.0604 | 0.0117
x2 = 0.0797 | 0.0159
x2 = 0.0987 | 0.0205
x2 = 0.1172 | 0.0245
x2 = 0.1353 | 0.0282

CCCCCCCCn1cc[n+](C)c1.O=S(=O)([O-])C(F)(F)F [1-octyl-3-methylimidazolium trifluoromethanesulfonate]
[3]
Details | mass density [kg/m3]
293.15 K | 1197
298.15 K | 1193.2
303.15 K | 1189.5
308.14 K | 1185.8
313.15 K | 1182.1
318.15 K | 1178.4
323.14 K | 1174.7
328.14 K | 1171.1
333.14 K | 1167.4
338.14 K | 1163.7
343.15 K | 1160.1
348.15 K | 1156.5
353.14 K | 1152.9

C=CCCC [1-pentene] + CCCCCCn1cc[n+](C)c1.O=S(=O)([O-])C(F)(F)F
[2], dilutor technique
Details | activity coefficient
303.18 K | 4.62
313.15 K | 4.58
323.16 K | 4.54
333.15 K | 4.51

C=CCCC [1-pentene] + CCCCn1cc[n+](C)c1.O=S(=O)([O-])C(F)(F)F
activity coefficient, [2]
Details | 303.45 K | 313.15 K | 323.15 K | 333.15 K | 333.18 K
Chromatography | 10.1 | 9.69 | 9.48 | 9.18 | –
Dilutor technique | – | 9.55 | 9.34 | – | 9.06

CCCCCCC [heptane] + CCCCCCCCn1cc[n+](C)c1.O=S(=O)([O-])C(F)(F)F
[2], dilutor technique
Details | activity coefficient
303.16 K | 9.59
313.14 K | 9.42
323.14 K | 9.26
333.11 K | 9.06

CCCCCCC [heptane] + CCCCCCn1cc[n+](C)c1.O=S(=O)([O-])C(F)(F)F
[2], dilutor technique
Details | activity coefficient
303.16 K | 19.2
313.18 K | 18
323.16 K | 17.4
333.14 K | 16.6

CCCCCCC [heptane] + CCCCn1cc[n+](C)c1.O=S(=O)([O-])C(F)(F)F
activity coefficient, [2]
Details | 303.12 K | 303.45 K | 313.15 K | 323.12 K | 323.14 K | 333.15 K | 333.21 K
Chromatography | – | 45 | 42.4 | – | 39.8 | 37 | –
Dilutor technique | 45 | – | 42.3 | 39.8 | – | – | 36.9

C=CCCCC [hex-1-ene] + CCCCCCCCn1cc[n+](C)c1.O=S(=O)([O-])C(F)(F)F
[2], dilutor technique
Details | activity coefficient
303.13 K | 4.68
313.13 K | 4.61
323.16 K | 4.57
333.16 K | 4.53

C=CCCCC [hex-1-ene] + CCCCCCn1cc[n+](C)c1.O=S(=O)([O-])C(F)(F)F
[2], dilutor technique
Details | activity coefficient
303.18 K | 7.4
313.15 K | 7.23
323.16 K | 7.03
333.15 K | 6.86

C=CCCCC [hex-1-ene] + CCCCn1cc[n+](C)c1.O=S(=O)([O-])C(F)(F)F
activity coefficient, [2]
Details | 303.17 K | 303.45 K | 313.15 K | 313.36 K | 323.14 K | 323.15 K | 333.14 K | 333.18 K
Chromatography | – | 14.4 | – | 14 | 13.5 | – | 13 | –
Dilutor technique | 14.3 | – | 13.8 | – | – | 13.5 | – | 12.9

CCCCCC [hexane] + CCCCCCCCn1cc[n+](C)c1.O=S(=O)([O-])C(F)(F)F
[2], dilutor technique
Details | activity coefficient
303.15 K | 7.25
323.16 K | 7.15
333.18 K | 7.09

CCCCCC [hexane] + CCCCCCn1cc[n+](C)c1.O=S(=O)([O-])C(F)(F)F
[2], dilutor technique
Details | activity coefficient
303.11 K | 12.8
313.16 K | 11.9
323.17 K | 11.4
333.17 K | 10.9

CCCCCC [hexane] + CCCCn1cc[n+](C)c1.O=S(=O)([O-])C(F)(F)F
activity coefficient, [2]
Details | 303.16 K | 303.45 K | 313.15 K | 313.19 K | 323.14 K | 323.16 K | 333.15 K | 333.22 K
Chromatography | – | 29.8 | 28.4 | – | 26.5 | – | 24.8 | –
Dilutor technique | 29 | – | – | 27.7 | – | 25.9 | – | 24.5

C=CCCCCCC [oct-1-ene] + CCCCCCCCn1cc[n+](C)c1.O=S(=O)([O-])C(F)(F)F
[2], dilutor technique
Details | activity coefficient
303.21 K | 8
313.15 K | 7.86
323.14 K | 7.79
333.12 K | 7.66

C=CCCCCCC [oct-1-ene] + CCCCCCn1cc[n+](C)c1.O=S(=O)([O-])C(F)(F)F
activity coefficient, [2]
Details | 303.14 K | 303.16 K | 313.15 K | 313.17 K | 323.15 K | 333.14 K | 333.18 K
Chromatography | 15.4 | – | 15 | – | 14.6 | 14.3 | –
dilutor technique | – | 15 | – | 14.5 | 14.2 | – | 13.7

C=CCCCCCC [oct-1-ene] + CCCCn1cc[n+](C)c1.O=S(=O)([O-])C(F)(F)F
activity coefficient, [2]
Details | 303.17 K | 303.45 K | 313.13 K | 313.15 K | 323.14 K | 323.16 K | 333.15 K | 333.16 K
Chromatography | – | 33.7 | – | 32 | 30.6 | – | 29.3 | –
Dilutor technique | 33.3 | – | 31.5 | – | – | 29.9 | – | 29

CCCCCCCC [octane] + CCCCCCCCn1cc[n+](C)c1.O=S(=O)([O-])C(F)(F)F
[2], dilutor technique
Details | activity coefficient
303.16 K | 12.6
313.14 K | 12.2
323.14 K | 12
333.11 K | 11.7

CCCCCCCC [octane] + CCCCCCn1cc[n+](C)c1.O=S(=O)([O-])C(F)(F)F
activity coefficient, [2]
Details | 303.14 K | 303.16 K | 313.15 K | 313.18 K | 323.15 K | 323.16 K | 333.14 K
Chromatography | 27.2 | – | 25.8 | – | 24.8 | – | 23.8
dilutor technique | – | 27.1 | – | 25.5 | – | 24.6 | 23.4

CCCCCCCC [octane] + CCCCn1cc[n+](C)c1.O=S(=O)([O-])C(F)(F)F
activity coefficient, [2]
Details | 303.12 K | 303.15 K | 313.15 K | 313.36 K | 323.12 K | 323.15 K | 333.15 K | 333.21 K
Chromatography | – | 71.2 | – | 65.5 | – | 60.3 | 55.2 | –
Dilutor technique | 70.3 | – | 65.6 | – | 60.1 | – | – | 55.7

CCCCC [pentane] + CCCCn1cc[n+](C)c1.O=S(=O)([O-])C(F)(F)F
[2], Dilutor technique
Details | activity coefficient
313.19 K | 18
323.16 K | 17.5
333.22 K | 16.8
